Laboratory results: patent US20220162610A1, “NOVEL RNA TRANSCRIPT” (PTC Therapeutics, Inc., priority 2020, published 2022)

Test system: HTT mRNA
Experiment: RT-qPCR of HTT mRNA in HD patient B lymphocytes (GM04856)
Format: cell-based, human
Protocol: B lymphocytes (GM04856 cells) were plated in 6-well plates at 5×10^5 cells/well in 2 mL of 10% FBS, DMEM and incubated for 6 hours (37° C., 5% CO2, 100% relative humidity). Cells were then treated with HTT-C1 at 125 nM (in 0.5% DMSO) in triplicate for 24 hours. RNA was purified with the RNeasy Mini Kit (Qiagen) according to the manufacturer's protocol. Samples were prepared for RT-PCR (described previously) using 0.04 μL of each primer (at 100 μM). For reverse transcription and PCR, the following steps were performed: RT step: 48° C. (15 min); PCR steps: Step 1: 95° C. (10 min), Step 2: 95° C. (30 sec), Step 3: 55° C. (30 sec), Step 4: 68° C. (1 min); Steps 2 to 4 were repeated for 34 cycles, then held at 4° C. PCR products were separated on 2% agarose E-gels, stained with ethidium bromide and visualized using a UVP gel imager.
To test if the small molecule-induced spliced transcripts are unstable due to nonsense-mediated decay (NMD), GM04856 lymphoblast cells were treated with cycloheximide (CHX). First cells were treated with DMSO or 250 nM HTT-C1 for 18 h. DMSO or 10 uM CHX was then added, and cells harvested for RNAs after 2 h, 4 h, and 8 h.

CC1(C)CC(Oc2ccc(-c3ccc(-c4ccnc(O)c4)cc3O)nn2)CC(C)(C)N1 [HTT-C1]
reduction in HTT mRNA (RT-qPCR) (250 nM, GM04856 lymphoblast cells, 18 h plus 2-8 h): ~80%
lowering of the amount of HTT mRNA as compared to the DMSO control (24-hour treatment, 125 nM, B-lymphocytes from an HD patient): about 85%
